Results published in PubChem BioAssay AID1259334 (Broad Institute, 2017).
Activity calls are given as the source filed them. No stated cut-off is given here; in the data, active means AC50 below about 11 µM.

tested on: not listed separately; test: TNFa signaling inhibitors in B cell line, dose response, counter-screen (AID 1259334); details: B cell line, TNFa signaling counterscreen reporter; at 0.0046 µM; stronger effect = lower value;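 further: cells stimulated with TNFa after compound preincubation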

Row | SMILES | max activity
1 | C[C@H]1CCCCO[C@H](CN(C)Cc2ccc(C(F)(F)F)cc2)[C@@H](C)CN([C@@H](C)CO)C(=O)c2cc(NC(=O)Nc3cccc4ccccc34)ccc2O1 | 7.77% (inactive)
2 | C[C@@H]1CN([C@@H](C)CO)C(=O)Cc2cc(NC(=O)Cc3cn(C)c4ccccc34)ccc2O[C@H]1CN(C)Cc1ccc(C(F)(F)F)cc1 | 14% (inactive)
3 | COc1cccc(S(=O)(=O)N(C)C[C@H]2OCc3ccccc3-c3c(n(C)c4ccccc34)C(=O)N([C@@H](C)CO)C[C@H]2C)c1 | 10.1% (inactive)
4 | CCN1C(=O)C(CC(=O)Nc2ccc(OC)cc2)N(CCc2ccc(F)cc2)C1=S (stereo unspecified) | 4.9% (inactive)

same assay, conditions: B cell line, TNFa signaling counterscreen reporter; at 0.0135 µM; stronger effect = lower value

Row | SMILES | max activity
5 | Cc1ccccc1-c1ccc(C2[C@@H]3CN(C(=O)Nc4cccc(F)c4)C[C@H]2N3)cc1 (stereo partly specified) | -14.6% (inactive)
6 | COc1ccc2c3c(n(C)c2c1)[C@H](CO)N(C(=O)Nc1ccc(F)cc1)CC31CCN(C(=O)Nc2ccc(F)cc2F)CC1 | -5.85% (inactive)
7 | O=C(c1ccncc1)N1C[C@@H]2N[C@H](C1)C2c1ccc(/C=C/c2ccccc2)cc1 (stereo partly specified) | 8.12% (inactive)
8 | COc1cccc(OC)c1OCCNCC1COc2ccccc2O1 (stereo unspecified) | 14.5% (inactive)
9 | CCc1cc2c(COC(=O)c3cc(S(=O)(=O)N4CCOCC4)ccc3F)cc(=O)oc2cc1O | 15.8% (inactive)
10 | COc1cccc(S(=O)(=O)N(C)C[C@@H]2OCc3ccccc3-c3c(n(C)c4ccccc34)C(=O)N([C@H](C)CO)C[C@H]2C)c1 | 14.6% (inactive)
11 | CC(=O)Nc1nc2nc(-c3ccccc3)cc(-c3ccccc3)n2n1 | 11.6% (inactive)

same assay, conditions: B cell line, TNFa signaling counterscreen reporter; at 0.042 µM; stronger effect = lower value

Row | SMILES | max activity
12 | COc1ccc(S(=O)(=O)N(C)C[C@H]2Oc3ccc(NC(=O)Nc4ccc(C(F)(F)F)cc4)cc3C(=O)N([C@@H](C)CO)C[C@H]2C)cc1 | 15.2% (inactive)
13 | COc1ccc(CN2CC3(CN(S(=O)(=O)c4ccc(C)cc4)C3)c3c([nH]c4cc(OC)ccc34)[C@H]2CO)cc1 | 14.8% (inactive)
14 | CC1=NNC(=O)C1Br (stereo unspecified) | 52.7% (inactive)
15 | O=S(=O)(c1cccc2cnccc12)N1CCNCC1 | -11.3% (inactive)
16 | CC(=O)Nc1ccc(S(=O)(=O)c2ccc(N)cc2)cc1 | 6.36% (inactive)
17 | N#C[C@@H]1[C@@H](c2ccc(C#CC3CCCCC3)cc2)[C@H](CO)N1C(=O)Nc1ccc(F)cc1 | 13.4% (inactive)

same assay, conditions: B cell line, TNFa signaling counterscreen reporter; at 0.12 µM; stronger effect = lower value

Row | SMILES | max activity
18 | C[C@@H]1CCCCO[C@@H](CN(C)CC2CCCCC2)[C@@H](C)CN([C@@H](C)CO)C(=O)c2cc(NC(=O)Nc3ccc(C(F)(F)F)cc3)ccc2O1 | 11.4% (inactive)
19 | O=c1cc(-c2ccccc2)oc2cc(O)cc(O)c12 | 45.8% (inactive)

same assay, conditions: B cell line, TNFa signaling counterscreen reporter; at 0.38 µM; stronger effect = lower value

Row | SMILES | max activity
20 | CC(=O)c1cc(-c2ccccc2)n(CC(=O)NCc2cccs2)c1C | 12.3% (inactive)
21 | CC(C)(C)c1cc(/C=C(\C#N)C(N)=S)cc(C(C)(C)C)c1O | -4.66% (inactive)
22 | N#Cc1cccc(-c2ccc([C@@H]3[C@H](CO)N4CCCCN(C(=O)Nc5cccc(F)c5)C[C@@H]34)cc2)c1 | -15% (inactive)
23 | Oc1ccc(Cc2ccccc2)c2cccnc12 | -12% (inactive)
24 | C[C@H]1CN([C@@H](C)CO)C(=O)c2ccccc2-c2ccccc2CO[C@H]1CN(C)C(=O)[C@@H](Cc1ccccc1)N(C)C | -6.07% (inactive)
25 | C[C@@H]1CCCCO[C@@H](CN(C)C(=O)C2CCCCC2)[C@@H](C)CN([C@H](C)CO)C(=O)c2cc(NS(=O)(=O)c3ccccc3)ccc2O1 | 15.5% (inactive)

same assay, conditions: B cell line, TNFa signaling counterscreen reporter; at 1.1 µM; stronger effect = lower value

Row | SMILES | max activity
26 | COc1ccc(CN2CC3(CN(C(=O)Cc4ccccc4)C3)c3c([nH]c4cc(OC)ccc34)[C@H]2CO)cc1 | 10.3% (inactive)
27 | CCCNC(=O)N1[C@H](CO)[C@H](c2ccc(-c3cccc(OC)c3)cc2)[C@@H]1C#N | 18% (inactive)
28 | Cc1ccc2nc(-c3cc(-c4ccccc4)no3)cn2c1 | 49.4% (inactive)
29 | O=C1C(Br)=C(c2ccccc2)C(c2ccccc2)=C1c1ccccc1 | -5.75% (inactive)
30 | CC1=CC(=O)c2ccccc2C1=O | 21.6% (inactive)
31 | COc1ccc(-c2cnc3c(c2)C(=O)N([C@H](C)CO)C[C@@H](C)[C@@H](CN(C)C(=O)Nc2c(C)noc2C)O3)cc1 | 22.7% (inactive)
32 | N#C[C@H]1[C@@H](c2ccc(C#CC3CCCCC3)cc2)[C@@H](CO)N1C(=O)Nc1ccc(F)cc1 | 10.8% (inactive)
33 | C[C@H](CO)N1C[C@H](C)[C@H](CN(C)CC2CCCCC2)Oc2ccc(NC(=O)Nc3ccc(C(F)(F)F)cc3)cc2C1=O | 8.34% (inactive)
34 | COc1ccc(NC(=O)O/N=C/c2c(C)nn(C(C)(C)C)c2C)cc1 | 39.8% (inactive)
35 | CC(C)(C)n1cc(C(=O)c2ccc3ccccc3c2O)cn1 | -24.4% (inactive)
36 | O=C(NCc1ccccn1)C1CCCN(S(=O)(=O)c2ccccc2)C1 (stereo unspecified) | 18.3% (inactive)
37 | COc1ccccc1C(=O)Nc1ccc2c(c1)C(=O)N(C)[C@H]1CC[C@H](CC(=O)Nc3cccc(C(C)C)c3)O[C@@H]1CO2 | 37.4% (inactive)
38 | O=C(Nc1ccc([N+](=O)[O-])cc1Cl)c1cc(Cl)ccc1O | 14.6% (inactive)

same assay, conditions: B cell line, TNFa signaling counterscreen reporter; at 3 µM; stronger effect = lower value

Row | SMILES | max activity
39 | C[C@H]1CN([C@@H](C)CO)C(=O)c2c(c3ccccc3n2C)-c2ccccc2CO[C@@H]1CN(C)S(=O)(=O)c1ccc([N+](=O)[O-])cc1 | -14.8% (inactive)

same assay, conditions: B cell line, TNFa signaling counterscreen reporter; at 3.5 µM; stronger effect = lower value

Row | SMILES | max activity
40 | Cc1ccc(S(=O)(=O)N2CCCC2CNC(=O)c2ccc3c(c2)OCO3)cc1 (stereo unspecified) | -23.3% (inactive)
41 | N#Cc1ccc(-c2ccc3c(c2)[C@H]2[C@H](CCN2C(=O)C2CC2)[C@@H](CO)N3)cc1 | -16.6% (inactive)
42 | CC(=O)NCCCC(=O)NC(CCC(=O)OCc1ccccc1)C(=O)OCc1ccccc1 (stereo unspecified) | -20% (inactive)
43 | Cc1ccc(-c2cc(C(=O)N3CCCC(C(F)(F)F)C3)c3ccccc3n2)o1 (stereo unspecified) | 21.4% (inactive)
44 | CCCC(C)Sc1nc2c([nH]1)c(=S)n(C)c(=O)n2C (stereo unspecified) | 58.9% (inactive)
45 | O=C(CNCCO)N1N=C(c2cccs2)CC1c1cccs1 (stereo unspecified) | -16% (inactive)
46 | CC12CC[C@H]3[C@@H](CCC4(O)C[C@H](O)CCC34/C=N/NC(=O)Cc3ccccc3)C1(O)CCC2C1=CC(=O)OC1 (stereo partly specified) | 5.28% (inactive)
47 | COC(=O)c1ccc2c(=O)[nH]c(COC(=O)c3c(-c4ccccc4)noc3C)nc2c1 | 8.26% (inactive)
48 | N#C[C@H]1[C@H](c2ccc(C#Cc3ccccc3F)cc2)[C@@H](CO)N1C(=O)C1CC1 | -17.4% (inactive)
49 | N#C[C@@H]1[C@H](c2ccc(C#CC3CCCC3)cc2)[C@H](CO)N1C(=O)Cc1ccccn1 | -8.57% (inactive)
50 | CC(C)OC(=O)CC1C(=O)NCCN1C(=S)NC(=O)c1cccs1 (stereo unspecified) | 7.79% (inactive)
51 | C[C@@H]1CN([C@H](C)CO)C(=O)c2cc(NC(=O)Nc3cccc4ccccc34)ccc2O[C@@H](C)CCCCO[C@H]1CN(C)Cc1ccc(C(F)(F)F)cc1 | -8.53% (inactive)

same assay, conditions: B cell line, TNFa signaling counterscreen reporter; at 10 µM; stronger effect = lower value

Row | SMILES | max activity
52 | N#C[C@@H]1[C@@H](c2ccccc2)[C@H](CO)N1C(=O)CN1CCOCC1 | 46.9% (inactive)
53 | CCCNC(=O)N1[C@H](CO)[C@H](c2ccc(/C=C/c3ccccc3)cc2)[C@@H]1C#N | 45.4% (inactive)
54 | CCCCc1nc2ccccc2[nH]1 | 6.54% (inactive)
55 | CCc1cc2c(=O)c(-c3ccc4c(c3)OCCO4)coc2c(CN2CCCCC2C)c1O (stereo unspecified) | 26.6% (inactive)
56 | OC(CCN1CCCCC1)c1ccc(-c2ccccc2)cc1 (stereo unspecified) | 32.8% (inactive)
57 | c1cncc(C2=NCCC2)c1 | 38% (inactive)
58 | CC(=NNC(=S)N1CC2CCC(CC2)C1)c1nccs1 | 43.9% (inactive)
59 | C[C@@H]1CN([C@H](C)CO)C(=O)c2c(c3ccccc3n2C)-c2ccccc2CO[C@H]1CN(C)C(=O)Nc1ccccc1C(F)(F)F | -6.36% (inactive)
60 | CCc1cnc(N2[C@H](C#N)[C@H](c3ccc(C#CCC4CCCC4)cc3)[C@@H]2CO)s1 | 32.9% (inactive)
61 | CCCNC(=O)N1[C@H](C#N)[C@@H](c2ccc(-c3cccc(OC)c3)cc2)[C@H]1CO | 11.7% (inactive)
62 | CN1C(=O)c2cc(NC(=O)c3cccc(Cl)c3)ccc2OC[C@@H]2O[C@@H](CC(=O)NC3CCCCC3)CC[C@H]21 | -5.27% (inactive)
63 | O=C(c1ccc(-c2ccc([N+](=O)[O-])cc2)o1)N1CCCC(C(F)(F)F)C1 (stereo unspecified) | 46.5% (inactive)
64 | CCc1cnc(N2[C@H](C#N)[C@@H](c3ccccc3C3=CCCC3)[C@@H]2CO)s1 | 9.74% (inactive)
65 | C=C1C(=O)OC2C=C(CO)CCC=C(CO)CC(OC(=O)C(C)C)C12 (stereo unspecified) | 28.9% (inactive)

same assay, conditions: B cell line, TNFa signaling counterscreen reporter; at 11 µM; stronger effect = lower value

Row | SMILES | max activity
66 | C[C@@H]1CN([C@H](C)CO)C(=O)Cc2cc(NC(=O)Cc3cn(C)c4ccccc34)ccc2O[C@H]1CN(C)Cc1ccc(C(F)(F)F)cc1 | -10.7% (inactive)

tested on: B cell line, TNFa signaling counterscreen reporter; test: as above; details: not given

Row | SMILES | AC50
67 | Cc1noc(C)c1S(=O)(=O)Nc1ccc2c(c1)C(=O)N([C@H](C)CO)C[C@@H](C)[C@H](CN(C)C(=O)Nc1cccc3ccccc13)OCCCC[C@@H](C)O2 | > 20000 nM (inactive)
68 | O=C(C1CCCC1)N1CC(=O)N2[C@@H](CO)[C@@H](c3ccc(C#CCc4ccccc4)cc3)[C@@H]2C1 | 1700 nM
69 | CC(OC(=O)c1cc(Br)ccc1O)C(=O)Nc1ccc(S(=O)(=O)N2CCCC2)cc1 (stereo unspecified) | 7820 nM
70 | O=C(C[C@@H]1CC[C@@H]2[C@H](COC[C@H](O)CN2Cc2cc(F)ccc2F)O1)NCc1ccc(Oc2ccccc2)cc1 | 5020 nM
71 | Cc1ccccc1NC(=O)c1nc(S(C)(=O)=O)ncc1Cl | 1960 nM
72 | CC(=O)OC1C(=O)OCC23CCC4(C)OC4C2OC2CC(OC(=O)C=CC=CC(=O)OCCC1C)C3(C)C21CO1 (stereo unspecified) | 4.12 nM
73 | COC(=O)c1nn(-c2ccc(-c3ccccc3)cc2)cc1O | 8920 nM
74 | O=C(Nc1ccccc1F)N1C[C@@H]2N[C@H](C1)C2c1ccc(/C=C/c2ccccc2)cc1 (stereo partly specified) | 1390 nM
75 | Cc1ccc(CN2CC(C(=O)Nc3ncc(C)s3)CC2=O)cc1 (stereo unspecified) | 4200 nM
76 | CC1CC(C)C(=O)C(C(CC2CC(=O)NC(=O)C2)OC(=O)CC(=O)c2ccccc2)C1 (stereo unspecified) | 2170 nM
